Biological target: T1, human M3 receptor (Homo sapiens, UniProt P20309)
T1 construct: expressed in transfected cells; host or cells: CHO cells (membrane preparation)
Test: Human M3 receptor antagonist activity, [3H]NMS receptor binding
Settings: not given
Method: Measurement of the receptor binding ability was performed by using a transgenic human M3 receptor expression CHO cell membrane, 1-[N-methyl-^3H] scopolamine methyl bromide ([^3H]NMS, specific activity of 82 Cimmol). Protein concentration of the cell membrane was 2 μg per well, concentration of the [^3H]NMS was 1.0 nM.
Range of the antagonist concentration (10^−4 to 10^−11 M) was tested by creating a comparison curve. Unspecific binding was measured in the presence of 1 μM of atropine.
The reagent was adjusted to a total volume of 100 μL with a binding buffer (phosphate buffer/saline). The mixture was incubated at room temperature for 2 hours so as to reach equilibrium, and then the resultant mixture was transplanted to a GF/C filter plate that had been pretreated with a washing buffer containing 0.05% polyethyleneimine for 1 hour.
The bound [^3H]NMS and the free[^3H]NMS were separated by rapid vacuum filtration, and washed three times with a rinse buffer (50 mM of Tris, 100 mM of saline, and pH of 7.4). The obtained filter was dried, and then onto the dried filter, a solid scintillator, MeltiLex A (manufactured by PerkinElmer, Inc.) was fused, and the measurement and quantification were performed by using a β-counter (MicroBeta microplate scintillation counter (Trilux)).
The Ki value was calculated by the following equation.

T1 sequence (P20309 whole entry): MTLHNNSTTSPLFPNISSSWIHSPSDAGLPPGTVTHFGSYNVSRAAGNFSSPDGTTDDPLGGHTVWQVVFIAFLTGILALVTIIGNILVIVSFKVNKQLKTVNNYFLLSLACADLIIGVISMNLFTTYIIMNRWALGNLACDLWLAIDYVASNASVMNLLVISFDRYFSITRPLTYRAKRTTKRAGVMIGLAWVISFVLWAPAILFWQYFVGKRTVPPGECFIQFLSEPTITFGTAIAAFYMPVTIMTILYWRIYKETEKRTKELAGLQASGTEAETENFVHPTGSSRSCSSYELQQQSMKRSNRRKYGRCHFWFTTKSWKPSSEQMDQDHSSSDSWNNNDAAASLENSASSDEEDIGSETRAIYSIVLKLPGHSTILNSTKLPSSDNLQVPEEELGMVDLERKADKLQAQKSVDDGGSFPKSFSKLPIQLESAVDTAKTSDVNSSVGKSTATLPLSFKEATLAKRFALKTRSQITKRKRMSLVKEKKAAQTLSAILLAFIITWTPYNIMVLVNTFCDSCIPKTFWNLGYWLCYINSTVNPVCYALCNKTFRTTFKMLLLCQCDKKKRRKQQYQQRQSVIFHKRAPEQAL

**Q.** Which Ki does the source give for O=C(OC1C[N+]2(CCOc3ccccc3F)CCC1CC2)C(O)(c1ccccc1)c1ccccc1 (centres unmarked) [Compound 1-4] here?
**A.** 0.114 nM

**Q.** O=C(OC1C[N+]2(CCOc3ccccc3Cl)CCC1CC2)C(O)(c1ccccc1)c1ccccc1 (centres unmarked) [Compound 1-5] was tested. Which Ki did it give?
**A.** 2.39 nM

**Q.** Which Ki does the source give for O=C(OC1C[N+]2(CCOc3ccccc3Br)CCC1CC2)C(O)(c1ccccc1)c1ccccc1 (centres unmarked) [Compound 1-6] here?
**A.** 0.458 nM

**Q.** How did the Ki turn out when O=C(OC1C[N+]2(CCCOc3ccc(F)cc3)CCC1CC2)C(O)(c1ccccc1)c1ccccc1 (centres unmarked) [Compound 1-29] was run?
**A.** 0.19 nM

**Q.** Which Ki does the source give for O=C(OC1C[N+]2(CCCOc3ccc(Cl)cc3)CCC1CC2)C(O)(c1ccccc1)c1ccccc1 (centres unmarked) [Compound 1-30] here?
**A.** 0.084 nM

**Q.** For O=C(OC1C[N+]2(CCCOc3ccc(Br)cc3)CCC1CC2)C(O)(c1ccccc1)c1ccccc1 (centres unmarked) [Compound 1-31], which Ki is on record?
**A.** 0.32 nM

**Q.** For O=C(OC1C[N+]2(CCCOc3ccc(I)cc3)CCC1CC2)C(O)(c1ccccc1)c1ccccc1 (centres unmarked) [Compound 1-32], which Ki is on record?
**A.** 0.22 nM

**Q.** For Cc1ccc(OCCC[N+]23CCC(CC2)C(OC(=O)C(O)(c2ccccc2)c2ccccc2)C3)cc1 (centres unmarked) [Compound 1-33], which Ki is on record?
**A.** 0.058 nM

**Q.** For O=C(OC1C[N+]2(CCCOc3ccc(C(F)(F)F)cc3)CCC1CC2)C(O)(c1ccccc1)c1ccccc1 (centres unmarked) [Compound 1-34], which Ki is on record?
**A.** 2.7 nM

**Q.** For COc1ccc(OCCC[N+]23CCC(CC2)C(OC(=O)C(O)(c2ccccc2)c2ccccc2)C3)cc1 (centres unmarked) [Compound 1-35], which Ki is on record?
**A.** 5.89 nM

**Q.** With O=C(OC1C[N+]2(CCCOc3ccc(OC(F)(F)F)cc3)CCC1CC2)C(O)(c1ccccc1)c1ccccc1 (centres unmarked) [Compound 1-36] as the molecule, how does the Ki read?
**A.** 0.39 nM

**Q.** O=C(OC1C[N+]2(CCOCc3ccccc3)CCC1CC2)C(O)(c1ccccc1)c1ccccc1 (centres unmarked) [Compound 1-41] was tested. Which Ki did it give?
**A.** 0.12 nM

Tested on: methacholine-induced airway constriction
Test: Effect on methacholine-induced airway constriction (airway resistance)
Assay type: in vivo
Settings: 47.9 μg/kg transairway, when exceeding 96 hours after the administration, ICR mice (FIG. 2)
Method: The increase of airway resistance by methacholine induction was measured. To 4 to 6-week old ICR mice, methacholine at 1 mg/mL was administered 5 times by spraying the methacholine for 20 seconds. After completion of the methacholine administration, the airway resistance was measured by a snap shot technique. All of the data were analyzed by using FlexiVent software.
The test compound at 47.9 μg/kg was administered to the mice through the transairway. The mice were exposed 5 times to nebulized methacholine 1 hour, 96 hours, and 120 hours after the administration, and the airway resistance at each time was measured.

**Q.** For O=C(O[C@H]1C[N+]2(CCCOc3ccccc3)CCC1CC2)C(O)(c1cccs1)c1cccs1 [aclidinium, reference compound], which “airway resistance after methacholine” value is on record?
**A.** did not reduce the airway resistance

Tested on: porcine pancreatic elastase-induced inflammation
Test: Effect on porcine pancreatic elastase-induced inflammation (total cells in BALF)
Assay type: in vivo
Settings: single transairway dose 1 hour before porcine pancreatic elastase 100 μg/mouse; BALF 24 hours after elastase; ICR mice
Method: To 4 to 6-week old ICR mice, a test compound was administered once through the transairway. Porcine pancreatic elastase at 100 μg/mouse was administered 1 hour after the administration of the test compound. Bronchoalveolar lavage fluid (BALF) was collected from the lungs 24 hours after the administration of porcine pancreatic elastase, and the total number of cells was measured.

**Q.** O=C(O[C@H]1C[N+]2(CCCc3ccccc3)CCC1CC2)C(O)(c1ccccc1)c1ccccc1 [Compound 1-18] was tested. Which “total number of cells in BALF” value did it give?
**A.** reduced in a dose-dependent manner

**Q.** O=C(O[C@@H]1C[N+]2(CCCc3ccccc3)CCC1CC2)C(O)(c1ccccc1)c1ccccc1 [Compound 1-19] was tested. Which “total number of cells in BALF” value did it give?
**A.** reduced in a dose-dependent manner

**Q.** With O=C(OC1C[N+]2(CCCc3ccccc3)CCC1CC2)C(O)(c1ccccc1)c1ccccc1 (centres unmarked) [Compound 1-20] as the molecule, how does the “total number of cells in BALF” value read?
**A.** reduced in a dose-dependent manner

**Q.** How did the “total number of cells in BALF” value turn out when O=C(O[C@H]1C[N+]2(CCCOc3ccccc3)CCC1CC2)C(O)(c1cccs1)c1cccs1 [aclidinium, reference compound] was run?
**A.** did not show any beneficial anti-inflammatory effects
